SMILES strings stand for the structures.

In one assay the test system is A20. Put plainly: A20 subcutaneous syngeneic lymphoma mouse model (Study 5), tumor growth inhibition. It is filed as in vivo, mouse (BALB/C). As to conditions: for TGI(%) / Tumor size (Mean ± SEM): A20 model, i.p., ARI compounds 160 mg/kg QD × 14 doses, Anti-PD-1 10 BIW × 4 doses, study end day Day 26. The method, then:
(§1) In this example, the in vivo anti-tumor efficacy of ARI-001, ARI-002, ARI-003, and ARI-143 and their combinations with an anti-PD-1 antibody was evaluated using a panel of twelve subcutaneous syngeneic mouse tumor models.
(§2) Eleven subcutaneous syngeneic mouse tumor models were generated by innoculating female BALB/C or C57BL/6 mice with cancer cells at their right lower or right front flank followed by randomization as detailed in Table 4 below.
(§3) A solution of a rat monoclonal anti-mouse PD-1 antibody (isotype IgG2a, κ) at a concentration of 6.61 mg/ml was obtained from BioXcell (InVivoMAb anti-mouse PD-1 (CD279), Clone RMP1-14, Cat #BE0146)) and store at 4° C. The antibody solution was diluted with PBS to obtain a 1 mg/ml dosing solution.
(§4) ARI-001, ARI-002, and ARI-003 powder was stored at −20° C. The powder of each compound was dissolved in DMSO to obtain dosing solutions at 106.7, 80, and 53.33 mg/ml for administration to mice at 160, 120, and 80 mg/kg, respectively. ARI-143 was similarly prepared.
(§5) Twelve studies using the twelve subcutaneous syngeneic mouse tumor models were performed. In each study, 80 mice were enrolled and randomly allocated to eight different study groups, with 10 mice in each study group. The mean tumor size at randomization was approximately 80-120 mm^3 (around 100 mm^3). Randomization was performed based on “Matched distribution” randomization method (StudyDirector™ software, version 3.1.399.19). […] All the drugs and vehicle controls were injected to the mice intraperitoneally.
(§6) After tumor cell inoculation, the animals were checked daily for morbidity and mortality. At the time of routine monitoring, the animals were checked for any effects of tumor growth and treatments on behavior such as mobility, food and water consumption, body weight gain/loss (body weights were measured twice or three times per week after randomization), and any other abnormalities. Mortality and observed clinical signs were recorded for individual animals. Tumor volumes were measured twice or three times weekly after randomization in two dimensions using a caliper, and the volume was expressed in mm^3 using the formula: […]
(§7) where V is tumor volume, L is tumor length (the longest tumor dimension) and W is tumor width (the longest tumor dimension perpendicular to L).
(§8) The study was terminated when the mean tumor volume (MTV) in the vehicle group reached a value of 2,000 mm^3. Tumor growth inhibition (TGI) is an indication of antitumor activity, and expressed as: […]
(§9) where T and C are the MTV (or weight) of the treated and control groups, respectively, on a given day. Statistical analysis of the difference in MTV among the groups was conducted using the data collected on the day when the MTV of the vehicle group reached the humane endpoints, so that TGI could be derived for all or most mice enrolled in the study.
(§10) Statistical analysis of differences in MTV among the groups was conducted by Independent-Samples T Test using the data collected. All data were analyzed with SPSS (Statistical Product and Service Solutions) version 18.0 (IBM, Armonk, N.Y., U.S.). P-values were rounded to three decimal places, with the exception that raw P-values less than 0.001 were stated as P<0.001. All tests were two-sided. P<0.05 was considered to be statistically significant.
FIG. 64 is a graph showing the mean tumor volume on different study days in the study groups as indicated according to Study 5 (A20). The study end day was Day 26.

In the next assay the test system is EMT-6. Put plainly: EMT-6 subcutaneous syngeneic breast cancer mouse model (Study 2 and Study 12), tumor growth inhibition. To be noted: for TGI(%) / Tumor size (Mean ± SEM): EMT-6 model (Study 2), i.p., ARI-001 160/120 mg/kg QD × 15/6 doses, ARI-002 and ARI-003 160 mg/kg QD × 21 doses, Anti-PD-1 10 BIW × 6 doses, study end day Day 27; for anti-tumor potency of anti-PD-1 antibody combined with the compound, compared to the antibody alone or the vehicle / anti-tumor potency of the compound combined with anti-PD-1 antibody, compared to being used alone: EMT-6 syngeneic breast cancer model. The class given is in vivo, mouse (BALB/C). The method, then:
as §1, §2, §3, §4, §5, §6, §7, §8, §9, §10
FIG. 61 is a graph showing the mean tumor volume on different study days in the study groups as indicated according to Study 2 (EMT-6). The study end day was Day 27.

The subject of another assay is LL/2. Put plainly: LL/2 subcutaneous syngeneic lung cancer mouse model (Study 6), tumor growth inhibition. As to conditions: for Tumor size / TGI(%): LL/2 model, study end day Day 32; for Tumor size: Mean ± SEM, in mm³; for anti-tumor potency of anti-PD-1 antibody combined with the compound, compared to the antibody alone or the vehicle: LL/2 syngeneic lung cancer model. The class given is in vivo, mouse (C57BL/6). The procedure:
as §1, §2, §3, §4, §5, §6, §7, §8, §9, §10
FIG. 65 is a graph showing the mean tumor volume on different study days in the study groups as indicated according to Study 6 (LL/2). The study end day was Day 32.

A further assay deals with B16F10. Put plainly: B16F10 subcutaneous syngeneic melanoma mouse model (Study 10), tumor growth inhibition. It is filed as in vivo, mouse (C57BL/6). As to conditions: for Tumor size / TGI(%): B16F10 model, study end day Day 19; for Tumor size: Mean ± SEM, in mm³. The procedure: as §1, §2, §3, §4, §5, §6, §7, §8, §9, §10
FIG. 69 is a graph showing the mean tumor volume on different study days in the study groups as indicated according to Study 10 (B16F10). The study end day was Day 19.

In another assay the test system is Hepa1-6. Put plainly: Hepa1-6 subcutaneous syngeneic liver cancer mouse model (Study 9), tumor growth inhibition. The class given is in vivo, mouse (C57BL/6). As to conditions: for Tumor size / TGI(%): Hepa1-6 model, study end day Day 26; for Tumor size: Mean ± SEM, in mm³. The method, then:
as §1, §2, §3, §4, §5, §6, §7, §8, §9, §10
FIG. 68 is a graph showing the mean tumor volume on different study days in the study groups as indicated according to Study 9 (Hepal-6). The study end day was Day 26.

The next assay deals with MC38. Put plainly: MC38 subcutaneous syngeneic colon cancer mouse model (Study 1), tumor growth inhibition. As to conditions: for TGI(%) / Tumor size (Mean ± SEM): MC38 model, i.p., ARI compounds 160 mg/kg QD × 17 doses, Anti-PD-1 10 BIW × 5 doses, study end day Day 26. The class given is in vivo, mouse (C57BL/6). The method, then: as §1, §2, §3, §4, §5, §6, §7, §8, §9, §10
FIG. 60 is a graph showing the mean tumor volume on different study days in the study groups as indicated according to Study 1 (MC38). The study end day was Day 26.

In a further assay the test system is RM-1. Put plainly: RM-1 subcutaneous syngeneic prostate cancer mouse model (Study 7), tumor growth inhibition. The class given is in vivo, mouse (C57BL/6). As to conditions: for Tumor size / TGI(%): RM-1 model, study end day Day 19; for Tumor size: Mean ± SEM, in mm³. The procedure:
as §1, §2, §3, §4, §5, §6, §7, §8, §9, §10
FIG. 66 is a graph showing the mean tumor volume on different study days in the study groups as indicated according to Study 7 (RM-1). The study end day was Day 19.

Another assay has as its system H22. Put plainly: H22 subcutaneous syngeneic liver cancer mouse model (Study 11), tumor growth inhibition. The class given is in vivo, mouse (BALB/C). As to conditions: for Tumor size / TGI(%): H22 model, study end day Day 18; for Tumor size: Mean ± SEM, in mm³. The procedure:
as §1, §2, §3, §4, §5, §6, §7, §8, §9, §10
FIG. 70 is a graph showing the mean tumor volume on different study days in the study groups as indicated according to Study 11 (H22). The study end day was Day 18.

Where [1] appears, read: MC38 syngeneic colon cancer model.
Setting [2] is: RM-1 syngeneic prostate cancer model.

For `COC(=O)c1csc(C(=O)c2c[nH]c3ccccc23)n1` [ARI-001], the “TGI(%)” value in the assay on A20 is on record as 55%; in the assay with EMT-6, 53%; with LL/2, 60%; in the assay with B16F10, 29%; with Hepa1-6, 27%; with MC38 it was 37%. In addition, the “TGI(%)” value in the assay on RM-1 worked out at 41%; in the assay with H22, 50%. Further, the “Tumor size (Mean ± SEM)” value in the assay with A20 came to 1190.08 ± 205.09 mm^3; in the assay on EMT-6, 871.63 ± 142.67 mm^3; in the assay with MC38 it was 1624.33 ± 148.56 mm^3. For the same compound, the “anti-tumor potency of anti-PD-1 antibody combined with the compound, compared to the antibody alone or the vehicle” value in the assay with EMT-6, with LL/2 and with MC38 (setting [1]) was “statistically significant increase” throughout. Besides, the “anti-tumor potency of the compound combined with anti-PD-1 antibody, compared to being used alone” value in the assay on EMT-6, with Hepa1-6 (Hepa1-6 syngeneic liver cancer model), in the assay on MC38 (setting [1]) and in the assay on RM-1 (setting [2]) was “statistically significant increase” throughout. The Tumor size in the assay on LL/2 is 881.1 ± 93.59; in the assay with B16F10 it was 2089.97 ± 201.33; in the assay with Hepa1-6, 1174.25 ± 229.74; with RM-1, 1732.55 ± 162.92; with H22 it was 1139.95 ± 207.21. For the same compound, the “anti-tumor potency of anti-PD-1 antibody combined with the compound, compared to the antibody alone” value in the assay on RM-1 (setting [2]) was “statistically significant increase”.

On to `CCC(=O)c1csc(C(=O)c2c[nH]c3ccccc23)n1` [ARI-002], for which the “TGI(%)” value with A20 was found to be 45%; with EMT-6, 55%; in the assay with LL/2 it was 62%; in the assay on B16F10, 32%; in the assay with Hepa1-6, 37%; in the assay with MC38, 45%. Moreover, the “TGI(%)” value with RM-1 was 41%; in the assay on H22, 44%. Moreover, the “Tumor size (Mean ± SEM)” value in the assay with A20 stood at 1446.75 ± 149.90 mm^3; in the assay on EMT-6 it was 842.08 ± 135.38 mm^3; in the assay with MC38, 1419.94 ± 141.48 mm^3. For the same compound, the “anti-tumor potency of the compound combined with anti-PD-1 antibody, compared to being used alone” value in the assay with A20 (A20 syngeneic lymphoma tumor model), in the assay with EMT-6 and in the assay on H22 (H22 syngeneic liver cancer model) was “statistically significant increase” each time. Besides, the “anti-tumor potency of anti-PD-1 antibody combined with the compound, compared to the antibody alone or the vehicle” value in the assay with EMT-6, in the assay with LL/2, with B16F10 (B16F10 syngeneic melanoma model) and in the assay on MC38 (setting [1]) was “statistically significant increase” throughout. In addition, the Tumor size in the assay with LL/2 was determined as 837.75 ± 117.58; in the assay on B16F10, 1994.41 ± 180.33; in the assay on Hepa1-6, 1018.26 ± 232.72; in the assay with RM-1, 1744.11 ± 144.25; with H22, 1261.07 ± 203.55. Also, the “anti-tumor potency of anti-PD-1 antibody combined with the compound, compared to the antibody alone” value in the assay with RM-1 (setting [2]) was “statistically significant increase”.

These data come from patent US20230054194A1, “Methods of Treating Cancer” (ARIAGEN, INC., priority 2018, published 2023).
